Assay results: ChEMBL document CHEMBL5625191, “A review of progress in o-aminobenzamide-based HDAC inhibitors with dual targeting capabilities for cancer therapy” (Eur J Med Chem, 2023)

Key:
Tubulin = assay: Inhibition of tubulin polymerization (unknown origin); assay type: protein-complex assay, Homo sapiens
MGC-803 = assay: Antiproliferative activity against human MGC-803 cells assessed as inhibition of cell growth; assay type: functional, cell-based
KYSE-450 = assay: Antiproliferative activity against human KYSE-450 cells assessed as inhibition of cell growth; assay type: functional, cell-based
Histone deacetylase 1 = Histone deacetylase 1 (Homo sapiens, UniProt Q13547); assay: Inhibition of HDAC1 (unknown origin)
HCT-116 = assay: Antiproliferative activity against human HCT-116 cells assessed as inhibition of cell growth; assay type: functional, cell-based
Histone deacetylase 2 = Histone deacetylase 2 (Homo sapiens, UniProt Q92769); assay: Inhibition of HDAC2 (unknown origin)
[1] = biological target: Bromodomain-containing protein 4 (Homo sapiens, UniProt O60885); assay: Inhibition of BRD4 BD1 (unknown origin)
Histone deacetylase [2] = assay: Inhibition of HDAC (unknown origin); assay type: protein assay, Homo sapiens
K562 [3] = assay: Antiproliferative activity against human K562 cells assessed as inhibition of cell growth by MTT assay; assay type: functional, cell-based
SK-MEL-1 = assay: Antitumor activity against human SK-MEL-1 cells assessed as tumor growth inhibition at 30 mg/kg, ip administered for 28 days; assay type: functional; conditions: SK-MEL-1, 672 h, time 28 day, read-out: TGI
[4] = Antiproliferative activity against human SCCIC1 cells assessed as inhibition of cell growth; assay type: functional, cell-based
[5] = Antiproliferative activity against human MET-1 cells assessed as inhibition of cell growth; assay type: functional, cell-based
A549 = assay: Antiproliferative activity against human A549 cells assessed as inhibition of cell growth incubated for 48 hrs by CCK-8 assay; assay type: functional, cell-based; conditions: A549, 48 h
CT26 = assay: Antitumor activity against mouse CT26 cells xenografted in mouse assessed as reduction in tumor volume; assay type: functional; set-up: scale not given: the % may be the effect or the level left
Ephrin type-A receptor 2 = Ephrin type-A receptor 2 (Homo sapiens, UniProt P29317); assay: Inhibition of EphA2 (unknown origin) incubated for 30 mins by TR-FRET assay
K562 [6] = assay: Antiproliferative activity against human K562 cells assessed as inhibition of cell growth incubated for 48 hrs by MTT assay; assay type: functional, cell-based; conditions: K562, 48 h
Histone deacetylase [7] = assay: Inhibition of HDAC in human HeLa nuclear extract using Boc-Lys(Ac)-AMC or Boc-Lys(Tfa)-AMC as substrate preincubated for 5 mins followed by substrate addition and measured after 30 mins by fluorescence assay; assay type: cell-free
RPMI-8226 = assay: Antiproliferative activity against human RPMI-8226 cells assessed as inhibition of cell growth incubated for 72 hrs by XTT assay; assay type: functional, cell-based; conditions: RPMI-8226, 72 h
[8] = Antiproliferative activity against human Bortezomib-resistant RPMI-8226 cells assessed as inhibition of cell growth incubated for 72 hrs by XTT assay; assay type: functional, cell-based; conditions: Bortezomib-resistant RPMI-8226, 72 h
[9] = biological target: Histone deacetylase (Homo sapiens) (UniProt Q13547+O15379+Q9UBN7+Q92769+Q9UQL6+Q8WUI4+Q9BY41+Q96DB2+P56524+Q9UKV0+Q969S8); assay: Inhibition of HDAC in human RPMI-8226 cells at 10 uM incubated for 8 hrs relative to control; assay type: cell-based

Sequence of Histone deacetylase 2 (Q92769 whole entry): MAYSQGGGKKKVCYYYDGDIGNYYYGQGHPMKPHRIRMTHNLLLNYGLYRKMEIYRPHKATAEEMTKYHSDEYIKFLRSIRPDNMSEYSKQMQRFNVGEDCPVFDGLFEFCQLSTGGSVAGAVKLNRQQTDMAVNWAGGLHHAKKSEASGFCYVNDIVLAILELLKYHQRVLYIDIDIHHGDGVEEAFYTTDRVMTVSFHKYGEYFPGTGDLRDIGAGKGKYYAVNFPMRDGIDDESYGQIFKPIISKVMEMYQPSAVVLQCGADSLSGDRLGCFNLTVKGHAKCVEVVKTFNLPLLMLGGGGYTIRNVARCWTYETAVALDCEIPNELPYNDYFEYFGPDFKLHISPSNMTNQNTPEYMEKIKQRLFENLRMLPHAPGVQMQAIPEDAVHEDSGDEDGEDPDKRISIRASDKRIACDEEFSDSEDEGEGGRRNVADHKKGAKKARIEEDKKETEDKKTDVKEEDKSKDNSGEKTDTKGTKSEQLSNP
Sequence of Histone deacetylase 1 (Q13547 whole entry): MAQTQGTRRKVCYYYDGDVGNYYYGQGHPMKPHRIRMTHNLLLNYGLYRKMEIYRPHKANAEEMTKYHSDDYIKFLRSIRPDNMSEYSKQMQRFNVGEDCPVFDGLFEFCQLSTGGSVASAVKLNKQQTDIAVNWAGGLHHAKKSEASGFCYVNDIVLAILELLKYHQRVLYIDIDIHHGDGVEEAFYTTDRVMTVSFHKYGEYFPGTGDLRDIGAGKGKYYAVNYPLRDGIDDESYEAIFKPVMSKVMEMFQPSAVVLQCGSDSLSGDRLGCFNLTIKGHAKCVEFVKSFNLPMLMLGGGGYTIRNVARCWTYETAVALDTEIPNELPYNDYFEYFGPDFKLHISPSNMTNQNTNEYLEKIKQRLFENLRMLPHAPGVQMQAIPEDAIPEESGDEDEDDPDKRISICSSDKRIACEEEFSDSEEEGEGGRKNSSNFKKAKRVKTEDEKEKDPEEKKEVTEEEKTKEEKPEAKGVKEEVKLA
Sequence of Ephrin type-A receptor 2 (P29317 whole entry): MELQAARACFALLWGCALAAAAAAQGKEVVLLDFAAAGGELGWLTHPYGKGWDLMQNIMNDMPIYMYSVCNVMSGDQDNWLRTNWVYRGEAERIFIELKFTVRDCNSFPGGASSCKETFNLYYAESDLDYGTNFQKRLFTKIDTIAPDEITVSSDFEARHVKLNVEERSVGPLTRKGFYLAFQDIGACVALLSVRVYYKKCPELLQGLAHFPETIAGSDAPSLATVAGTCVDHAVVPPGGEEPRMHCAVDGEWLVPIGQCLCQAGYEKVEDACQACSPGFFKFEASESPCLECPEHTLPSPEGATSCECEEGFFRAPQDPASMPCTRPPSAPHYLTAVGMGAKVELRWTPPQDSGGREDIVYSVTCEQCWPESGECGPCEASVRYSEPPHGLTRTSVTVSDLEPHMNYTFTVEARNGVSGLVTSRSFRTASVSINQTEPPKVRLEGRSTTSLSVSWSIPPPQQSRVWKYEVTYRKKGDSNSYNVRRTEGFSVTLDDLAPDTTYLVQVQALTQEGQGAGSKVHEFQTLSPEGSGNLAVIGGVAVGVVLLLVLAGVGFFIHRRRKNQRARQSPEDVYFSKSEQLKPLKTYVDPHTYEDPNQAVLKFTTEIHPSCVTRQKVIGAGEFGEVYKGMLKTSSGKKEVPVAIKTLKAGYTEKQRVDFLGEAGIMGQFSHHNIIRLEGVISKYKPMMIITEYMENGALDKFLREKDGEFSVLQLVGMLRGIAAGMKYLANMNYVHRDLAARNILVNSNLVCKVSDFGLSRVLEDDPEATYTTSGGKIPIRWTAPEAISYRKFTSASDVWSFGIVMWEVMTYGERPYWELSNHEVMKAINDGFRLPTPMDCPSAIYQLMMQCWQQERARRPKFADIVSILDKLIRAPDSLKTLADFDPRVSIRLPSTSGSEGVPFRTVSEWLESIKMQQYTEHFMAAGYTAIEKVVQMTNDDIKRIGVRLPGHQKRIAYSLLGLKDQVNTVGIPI

COc1ccc(CN(C(=O)Cc2ccc(C(=O)Nc3ccccc3N)cc2)c2cc(OC)c(OC)c(OC)c2)cc1O
IC50 (Tubulin): 3640 nM
IC50 (MGC-803): 30 nM
IC50 (KYSE-450): 254 nM
IC50 (Histone deacetylase 1): 525 nM
IC50 (HCT-116): 172 nM

CN1c2ccc(NCc3ccc(C(=O)Nc4ccccc4N)cc3)cc2C(=O)N2CCc3c([nH]c4ccccc34)[C@H]21
IC50 (Histone deacetylase 2): 6250 nM
IC50 (Histone deacetylase 1): 1510 nM
IC50 (HCT-116): 2760 nM

Cc1sc2c(c1C)C(c1ccc(Cl)cc1)=N[C@@H](CC(=O)Nc1ccc(C(=O)Nc3ccccc3N)cc1)c1nnc(C)n1-2
IC50 [1]: 729 nM

CCN1CCN(c2cc(Nc3ncc(C(=O)Nc4ccc(F)cc4N)s3)ncn2)CC1
IC50 (Histone deacetylase [2]): 810 nM
IC50 (K562 [3]): 2620 nM

Nc1ccccc1NC(=O)c1ccc(CCCC(=O)Nc2ccc([C@@H]3C[C@H]3N)cc2)cc1
inhibition in vivo at 30 mg/kg (SK-MEL-1): 61%
IC50 [4]: 41 nM
IC50 [5]: 6 nM

Cn1cc(-c2ccc(S(=O)(=O)n3ccc(/C=C/C(=O)Nc4ccccc4N)c3)cc2)cn1 [DOMATINOSTAT]
IC50 (A549): 7.8 nM
Activity (CT26): 53%

Nc1ccccc1NC(=O)Nc1ccc(NC(=O)c2cccnc2)cc1
IC50 (Ephrin type-A receptor 2): 680 nM
IC50 (K562 [6]): 8360 nM
IC50 (Histone deacetylase [7]): 940 nM

COc1ccc2[nH]c3c(c2c1)CCN1C(=O)c2cc(NCc4ccc(C(=O)Nc5ccccc5N)cc4)ccc2N(C)[C@H]31
IC50 (Histone deacetylase 2): 9370 nM
IC50 (Histone deacetylase 1): 2660 nM
IC50 (HCT-116): 7820 nM

CC(C)C[C@@H](NC(=O)[C@H](Cc1ccccc1)NC(=O)c1cnc(C(=O)Nc2ccccc2N)cn1)B1OC2CC3CC(C3(C)C)[C@@]2(C)O1 (some centres undefined)
IC50 (RPMI-8226): 9.5 nM
IC50 (Histone deacetylase [2]): 23.6 nM
IC50 [8]: 158 nM
inhibition [9]: 33%

CN1c2ccc(NCc3ccc(C(=O)Nc4ccccc4N)cc3)cc2C(=O)N2CCc3c([nH]c4ccc(O)cc34)[C@H]21
IC50 (Histone deacetylase 2): 2140 nM
IC50 (Histone deacetylase 1): 400 nM
IC50 (HCT-116): 2150 nM
